For one assay, the target named is T1, adenosine A3 receptors (Homo sapiens, UniProt P0DMS8).
T1 construct: expressed in transfected cells; membranes prepared in house
T1 sequence (P0DMS8 1-318): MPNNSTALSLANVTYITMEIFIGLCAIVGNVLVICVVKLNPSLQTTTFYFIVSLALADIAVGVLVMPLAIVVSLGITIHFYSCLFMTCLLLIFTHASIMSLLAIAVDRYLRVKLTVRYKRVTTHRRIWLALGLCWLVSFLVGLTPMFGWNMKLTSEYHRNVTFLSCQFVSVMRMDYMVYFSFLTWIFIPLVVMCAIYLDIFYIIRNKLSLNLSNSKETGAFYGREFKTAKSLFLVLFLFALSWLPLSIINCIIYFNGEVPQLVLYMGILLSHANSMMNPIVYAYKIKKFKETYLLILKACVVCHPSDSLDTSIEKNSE
Description: A3 [35S]-GTPGammaS binding functional assay (SPA, CHO membranes). It is filed as biochemical. The note with it: agonist stimulation of [35S]-GTPγS binding. Here is the method:
To establish the functional response to compounds of this invention an assay was carried out measuring A3 agonist stimulation of [^35S]-GTPγS binding in membranes prepared from CHO cells stably expressing adenosine A3 receptors. The agonist-induced stimulation of binding of [^35S]-GTPγS to activated G proteins has been used as a functional assay for a variety of receptors, including adenosine receptors. See Lorenzen et al., Mol Pharmacol, Vol. 49, pp. 915-926 (1996); and Jacobson et al., Drug Dev Res Vol. 37, p. 131 (1996).
The conventional GTPγS binding assay described by Lorenzen et al (1996), supra, is a filtration based method and thus requires a separation step; we have modified this method to run as a SPA format so that it can be used in a semi-automated and homogenous formal. In the SPA assay membranes are captured by wheatgerm agglutinin (WGA) SPA beads, through a specific interaction between WGA and carbohydrate residues of glycoproteins on the surfaces for the membranes. Upon receptor stimulation, [^35S]-GTPγS binds specifically to the alpha subunit of the G-protein thus bringing the [^35S]-GTPγS into close proximity with the SPA beads. Emitted β particles from the [^35S]-GTPγS excite the scintillant in the beads and produce light.
The assay was performed in a final volume of 250 μL/well in a white non-binding surface 96-well Optiplate. […]
In general terms: GTPγS is a poorly hydrolysed GTP analogue; its binding reports G protein activation.

The target of the next assay is T2, human A3 receptors (Homo sapiens, UniProt P0DMS8).
T2 construct: expressed in transfected cells; membranes prepared in house
T2 sequence (P0DMS8 1-318): T1 sequence (P0DMS8 1-318)
Briefly: A3 binding assay ([125I]-AB-MECA radioligand, CHO membranes). The settings on record: [125I]-AB-MECA 0.25 nM. The protocol:
Compounds in the present invention were tested in an A3 binding assay using the iodinated ligand [^125I]-AB-MECA with membranes prepared from CHO cells stably expressing human A3 receptors.
Radioligand binding to the CHO A3 membranes was performed using radio-labelled agonist [^125I]-AB-MECA at a concentration range of 0.002-5 nM to obtain saturation binding. Binding experiments were performed in duplicate using 2.5 μg membrane in a total volume of 200 μL of assay buffer. The non-specific binding was determined in the presence of 10 μM of the agonist I-AB-MECA.
The assay was performed in a final volume of 200 μL/well, in a U-bottomed polypropylene 96-well plate. […] Total binding was determined using 50 μL vehicle. Non-specific binding was determined using 50 μL of 40 μM I-AB-MECA, to give a final assay concentration of 10 μM. • 50 μL [^125I]-AB-MECA at a concentration of 1 nM (4×), to give a final assay concentration of 0.25 nM. • 100 μL CHO A3 membranes at a concentration of 25 μg/mL in assay buffer containing 4 U/mL adenosine deamin ase (ADA) (final assay concentration of 2 U/mL), to give a final assay concentration of 2.5 μg/well.
Compound dilution were prepared on a Biomek 2000 to give a series of 10 concentrations from 40-0.002 μM (4×). […] Total binding was determined in the absence of I-AB-MECA and non specific binding in the presence of 10 μM I-AB-MECA. […]

For assay [1] the following is noted: as described in WO 95/02604, cited from earlier work.

As to `CC(=O)N[C@H]1C[C@@H](n2cnc3c(NCc4cccc(I)c4)nc(Cl)nc32)[C@H](O)[C@@H]1O` [Example 1, N-{(1S,2R,3S,4R)-4-[2-Chloro-6-(3-iodobenzylamino)-purin-9-yl]-2,3-dihydroxycyclopentyl}-acetamide], the EC50 (as a rule, the concentration needed to bring the measured effect to its halfway point) at adenosine A3 receptors was 11 nM. In addition, the Ki – broadly, a dissociation constant, usually derived from enzyme kinetics or from competition with a known ligand – on human A3 receptors amounted to 0.91 nM.
With `CNC(=O)[C@H]1O[C@@H](n2cnc3c(NCc4cccc(I)c4)ncnc32)[C@H](O)[C@@H]1O` [IB-MECA], the increase in basal or systemic blood pressure in assay [1] (administration of IB-MECA) is 10 to 30%. In addition, the “basal or systemic blood pressure after administration” value in assay [1] (from about 70 mmHg) is “about 90 mmHg”.

The values are drawn from patent US20090281126A1, “Organic Compounds” (Novartis AG, priority 2006, published 2009).
